Assay results: patent US20260209297A1, “ANTIMICROBIAL PEPTIDES AND MODIFICATIONS THEREOF” (priority 2022, published 2026)
Values after ≈ are worked out from the molar mass of the structure shown. Positions of bridges follow the written chain, without caps; N, C: chain ends. Non-standard residues stand in square brackets, D forms with d. Residues, ends and D or L forms follow the SMILES beside them. No end group written: not given here. Dab = NCC[C@H](N)C(=O)O

Columns and labels:
[1] = tested on: Colletotrichum gloeosporioides; test: 96-well plate MIC assay with resazurin viability; type: cell-based; details: Table 19; unit not given (peptide concentrations in μM)
Cercospora sojina = test: 96-well plate MIC assay with resazurin viability; type: cell-based; details: Table 19; unit not given (peptide concentrations in μM)
Alternaria alternata = test: 96-well plate MIC assay with resazurin viability; type: cell-based; details: Table 19; unit not given (peptide concentrations in μM)
Botrytis cinerea T-4 = details: Table 18
B. cinerea [2] = test: Semi-in planta gray mold assay on detached Nicotiana benthamiana leaves (drop inoculation); type: in vivo, Botrytis cinerea; details: for gray mold symptoms, drop inoculation assay: 3 and 6 μM
B. cinerea [3] = test: MIC antifungal assay in SFM culture media (with or without added salts); type: cell-based, Botrytis cinerea
F. graminearum = type: cell-based, Fusarium graminearum

| Compound | MIC Colletotrichum gloeosporioides [1] | MIC Cercospora sojina (Cercospora sojina) | MIC Alternaria alternata (Alternaria alternata) | MIC (μM) SFM (Botrytis cinerea T-4) | MIC (μM) (SFM + 2 mM CaCl2) (Botrytis cinerea T-4) | MIC (μM) (SFM + 100 mM NaCl) (Botrytis cinerea T-4) | also measured |
| --- | --- | --- | --- | --- | --- | --- | --- |
| C[C@H](NC(=O)CN)C(=O)N[C@H]1CSSC[C@@H](C(N)=O)NC(=O)[C@H](CCCCN)NC(=O)[C@H](CCCCN)NC(=O)[C@H](Cc2ccc(O)cc2)NC(=O)[C@H](Cc2ccccc2)NC(=O)[C@H](Cc2ccccc2)NC(=O)[C@H](Cc2ccccc2)NC(=O)[C@H](C)NC(=O)[C@H](Cc2ccccc2)NC(=O)CNC(=O)[C@H](Cc2ccccc2)NC(=O)CNC(=O)[C@H](CCC(N)=O)NC(=O)[C@H](CCCNC(=N)N)NC(=O)[C@H](Cc2c[nH]cn2)NC1=O [GMA5CA_V4] (H-GACHRQGFGFAFFFYKKC-NH2; disulfide 3-18; N-terminus assumed) | >12 | 6 | 3 | 3 µM (≈ 6.33 µg/mL) | >12 µM | >12 µM | MIC (μM) (SFM + 100 mM KCl) (Botrytis cinerea T-4): >12 µM |
| CC[C@H](C)[C@@H]1NC(=O)[C@H](CCCNC(=N)N)NC(=O)[C@@H](NC(=O)[C@H](CCCNC(=N)N)NC(=O)CNC(=O)[C@@H](N)CO)CSSC[C@@H](C(N)=O)NC(=O)[C@H](CC(N)=O)NC(=O)[C@H](CCCCN)NC(=O)[C@H]([C@@H](C)O)NC(=O)[C@H](Cc2c[nH]c3ccccc23)NC(=O)[C@H](Cc2ccccc2)NC(=O)[C@H](Cc2c[nH]c3ccccc23)NC(=O)[C@H](CCCNC(=N)N)NC(=O)[C@H](Cc2ccccc2)NC(=O)[C@H](CC(C)C)NC1=O [GMA1C_V2] (H-SGRCRILFRWFWTKNC-NH2; disulfide 4-16; N-terminus assumed) |  |  |  |  | 3 µM | 3 µM | MIC (μM) (SFM + 100 mM KCl) (Botrytis cinerea T-4): >12 µM; gray mold symptoms, drop inoculation assay, comparison within the peptide family (B. cinerea [2]; 1.5 μM): more effective; gray mold symptoms, drop inoculation assay (B. cinerea [2]): completely abrogated gray mold symptoms |
| CC[C@H](C)[C@H](NC(=O)[C@H](CCCNC(=N)N)NC(=O)[C@H](CS)NC(=O)[C@H](CCCNC(=N)N)NC(=O)CNC(=O)[C@@H](N)CO)C(=O)N[C@@H](CC(C)C)C(=O)N[C@@H](Cc1ccccc1)C(=O)N[C@@H](CCCNC(=N)N)C(=O)N[C@@H](CS)C(=O)N[C@@H](Cc1ccccc1)C(=O)N[C@@H](CS)C(=O)N[C@H](C(=O)N[C@@H](CCCCN)C(=O)N[C@@H](CC(N)=O)C(=O)N[C@@H](CS)C(N)=O)[C@@H](C)O [GMA1C_V1] (H-SGRCRILFRCFCTKNC-NH2; N-terminus assumed) |  |  |  |  |  |  | gray mold symptoms, drop inoculation assay (B. cinerea [2]): failed to reduce disease symptoms |
| CC(C)C[C@@H]1NC(=O)[C@@H](NC(=O)[C@H](C)NC(=O)CN)CSSC[C@@H](C(=O)N[C@@H](Cc2ccc(O)cc2)C(N)=O)NC(=O)[C@H](Cc2c[nH]cn2)NC(=O)[C@H](CCCNC(=N)N)NC(=O)[C@H](Cc2ccc(O)cc2)NC(=O)[C@H](Cc2ccc(O)cc2)NC(=O)[C@H](Cc2c[nH]c3ccccc23)NC(=O)[C@H](Cc2ccccc2)NC(=O)[C@H](Cc2ccccc2)NC(=O)CNC(=O)[C@H](Cc2ccc(O)cc2)NC(=O)[C@H](Cc2c[nH]cn2)NC(=O)[C@H](CCCCN)NC(=O)[C@H](CO)NC(=O)[C@H](Cc2c[nH]cn2)NC(=O)[C@H](CCCNC(=N)N)NC(=O)[C@H](CC(N)=O)NC(=O)[C@H](CCCCN)NC1=O [GMAOe1C_V4] (H-GACLKNRHSKHYGFFWYYRHCY-NH2; disulfide 3-21; N-terminus assumed) |  |  |  | 1.5 µM (≈ 4.25 µg/mL) |  | 6 µM |  |
| C[C@H](NC(=O)CN)C(=O)N[C@@H](CS)C(=O)N[C@@H](Cc1c[nH]cn1)C(=O)N[C@@H](CCCNC(=N)N)C(=O)N[C@@H](CCC(N)=O)C(=O)NCC(=O)N[C@@H](Cc1ccccc1)C(=O)NCC(=O)N[C@@H](Cc1ccccc1)C(=O)N[C@@H](C)C(=O)N[C@@H](CS)C(=O)N[C@@H](Cc1ccccc1)C(=O)N[C@@H](CS)C(=O)N[C@@H](Cc1ccc(O)cc1)C(=O)N[C@@H](CCCCN)C(=O)N[C@@H](CCCCN)C(=O)N[C@@H](CS)C(N)=O [GMA5CA_WT, reference compound] (H-GACHRQGFGFACFCYKKC-NH2; N-terminus assumed) | >12 | 12 | 6 |  |  |  |  |
| GRCRGFRRRCFCTTHC-NH2 (cysteine pairing not given here) [GMA4AC_WT, reference compound] | >12 | >12 | >12 |  |  |  |  |
| CC(C)C[C@H](NC(=O)[C@H](CS)NC(=O)[C@H](C)NC(=O)CN)C(=O)N[C@@H](CCCCN)C(=O)N[C@@H](CC(N)=O)C(=O)N[C@@H](CCCNC(=N)N)C(=O)N[C@@H](Cc1c[nH]cn1)C(=O)N[C@@H](CO)C(=O)N[C@@H](CCCCN)C(=O)N[C@@H](Cc1c[nH]cn1)C(=O)N[C@@H](Cc1ccc(O)cc1)C(=O)NCC(=O)N[C@@H](CS)C(=O)N[C@@H](Cc1ccc(O)cc1)C(=O)N[C@@H](CS)C(=O)N[C@@H](Cc1ccc(O)cc1)C(=O)N[C@@H](Cc1ccc(O)cc1)C(=O)N[C@@H](CCCNC(=N)N)C(=O)N[C@@H](Cc1c[nH]cn1)C(=O)N[C@@H](CS)C(=O)N[C@@H](Cc1ccc(O)cc1)C(N)=O [GMAOe1C_WT, reference compound] (H-GACLKNRHSKHYGCYCYYRHCY-NH2; N-terminus assumed) |  |  |  |  |  |  | reducing gray mold disease symptoms (lesion sizes) (B. cinerea [2]; detached N. benthamiana leaves, 1.5 μM, 3 μM and 6 μM, 48 h): only effective at 6 μM |
| C[C@H](NC(=O)CN)C(=O)N[C@H]1CSSC[C@@H](C(N)=O)NC(=O)[C@H](CCCCN)NC(=O)[C@H](CCCCN)NC(=O)[C@H](Cc2ccc(O)cc2)NC(=O)[C@H](Cc2c[nH]c3ccccc23)NC(=O)[C@H](Cc2ccccc2)NC(=O)[C@H](Cc2c[nH]c3ccccc23)NC(=O)[C@H](C)NC(=O)[C@H](Cc2ccccc2)NC(=O)CNC(=O)[C@H](Cc2ccccc2)NC(=O)CNC(=O)[C@H](CCC(N)=O)NC(=O)[C@H](CCCNC(=N)N)NC(=O)[C@H](Cc2c[nH]cn2)NC1=O [GMA5CA_V3] (H-GACHRQGFGFAWFWYKKC-NH2; disulfide 3-18; N-terminus assumed) | >12 | 6 | 3 | 3 µM (≈ 6.57 µg/mL) | >12 µM | >12 µM | MIC (μM) (SFM + 100 mM KCl) (Botrytis cinerea T-4): >12 µM |
| CC[C@H](C)[C@H](NC(=O)[C@H](CCCNC(=N)N)NC(=O)[C@@H](NC(=O)[C@H](Cc1c[nH]c2ccccc12)NC(=O)[C@H](Cc1ccccc1)NC(=O)[C@H](Cc1c[nH]c2ccccc12)NC(=O)[C@H](CCCNC(=N)N)NC(=O)[C@H](CCCNC(=N)N)NC(=O)[C@H](CCCNC(=N)N)NC(=O)[C@H](Cc1ccccc1)NC(=O)CNC(=O)[C@H](CCCCN)NC(=O)[C@H](CS)NC(=O)[C@H](CCCNC(=N)N)NC(=O)CNC(=O)CN)[C@@H](C)O)C(=O)N[C@@H](CS)C(N)=O [GMA4C_V6A] (H-GGRCKGFRRRWFWTRIC-NH2; N-terminus assumed) |  |  |  |  |  |  | antifungal activity relative to the wild-type GMA4C_AC control, B. cinerea (B. cinerea [3]; in vitro, low cationic conditions): four-fold increase |
| C[C@@H](O)[C@H](NC(=O)[C@H](CS)NC(=O)[C@H](Cc1ccccc1)NC(=O)[C@H](CS)NC(=O)[C@H](CCCNC(=N)N)NC(=O)[C@H](CCCNC(=N)N)NC(=O)[C@H](CCCNC(=N)N)NC(=O)[C@H](Cc1ccccc1)NC(=O)CNC(=O)[C@H](CCCNC(=N)N)NC(=O)[C@H](CS)NC(=O)[C@H](CCCNC(=N)N)NC(=O)CNC(=O)CN)C(=O)N[C@H](C(=O)N[C@@H](Cc1c[nH]cn1)C(=O)N[C@@H](CS)C(N)=O)[C@@H](C)O [GMA4C_AC, reference compound] (H-GGRCRGFRRRCFCTTHC-NH2; N-terminus assumed) |  |  |  |  |  |  | antifungal activity against B. cinerea in presence of cations (B. cinerea [3]; 100 mM NaCl or 100 mM KCl): retain their antifungal activity; SFM + 2 mM CaCl2 MIC (μM) (B. cinerea [3]; B. cinerea, Table 4): >6 (a few μM; SFM + 2 mM CaCl2 MIC (μM) (B. cinerea [3]; Table 10): >6 (a few μM |
| C[C@@H](O)[C@H](NC(=O)[C@H](CS)NC(=O)[C@H](Cc1ccccc1)NC(=O)[C@H](CS)NC(=O)[C@H](CCCNC(=N)N)NC(=O)[C@H](CCCNC(=N)N)NC(=O)[C@H](CCCNC(=N)N)NC(=O)[C@H](Cc1ccccc1)NC(=O)CNC(=O)[C@H](CCCNC(=N)N)NC(=O)[C@H](CS)NC(=O)[C@H](CCCNC(=N)N)NC(=O)CN)C(=O)N[C@H](C(=O)N[C@@H](Cc1c[nH]cn1)C(=O)N[C@@H](CS)C(N)=O)[C@@H](C)O [GMA4AC, reference compound] (H-GRCRGFRRRCFCTTHC-NH2) |  |  |  | 3 µM (≈ 5.88 µg/mL) |  |  | MIC (μM) Fusarium graminearum (F. graminearum): 6 µM (≈ 11.8 µg/mL); MIC (μM) Botrytis cinerea (B. cinerea [3]; SFM, Table 9): 6 µM |
| CC(C)C[C@@H]1NC(=O)[C@@H](NC(=O)[C@H](C)NC(=O)CN)CSSC[C@@H](C(=O)N[C@@H](Cc2ccc(O)cc2)C(N)=O)NC(=O)[C@H](Cc2c[nH]cn2)NC(=O)[C@H](CCCNC(=N)N)NC(=O)[C@H](Cc2ccc(O)cc2)NC(=O)[C@H](Cc2ccc(O)cc2)NC(=O)[C@H](Cc2c[nH]c3ccccc23)NC(=O)[C@H](Cc2ccccc2)NC(=O)[C@H](Cc2c[nH]c3ccccc23)NC(=O)CNC(=O)[C@H](Cc2ccc(O)cc2)NC(=O)[C@H](Cc2c[nH]cn2)NC(=O)[C@H](CCCCN)NC(=O)[C@H](CO)NC(=O)[C@H](Cc2c[nH]cn2)NC(=O)[C@H](CCCNC(=N)N)NC(=O)[C@H](CC(N)=O)NC(=O)[C@H](CCCCN)NC1=O [GMAOe1C_V3] (H-GACLKNRHSKHYGWFWYYRHCY-NH2; disulfide 3-21; N-terminus assumed) |  |  |  | 1.5 µM (≈ 4.31 µg/mL) | 3 to 6 µM | 2 to 3 µM | gray mold symptoms, drop inoculation assay, comparison within the peptide family (B. cinerea [2]; 1.5 μM): more effective |
| NCC[C@H](NC(=O)CNC(=O)[C@@H](N)Cc1ccccc1)C(=O)N[C@@H](CS)C(=O)N[C@@H](CCN)C(=O)NCC(=O)N[C@@H](Cc1ccccc1)C(=O)N[C@@H](CCN)C(=O)N[C@@H](CCN)C(=O)N[C@@H](CCN)C(=O)N[C@@H](CS)C(=O)N[C@@H](Cc1ccccc1)C(=O)N[C@@H](CS)C(=O)N[C@@H](Cc1c[nH]c2ccccc12)C(=O)N[C@@H](CCN)C(=O)N[C@@H](Cc1c[nH]c2ccccc12)C(=O)N[C@@H](CS)C(=O)O [GMA4C_V5, FG(Dab)C(Dab)GF(Dab)(Dab)(Dab)CFCW(Dab)WC] (H-FG[Dab]C[Dab]GF[Dab][Dab][Dab]CFCW[Dab]WC-OH; N-terminus assumed) |  |  |  |  |  |  | SFM + 2 mM CaCl2 MIC (μM) (B. cinerea [3]; B. cinerea, Table 4): >6 (very μM; SFM + 2 mM CaCl2 MIC (μM) (B. cinerea [3]; Table 10): >6 (very μM |
